Measurements taken from PMC11129182, “Development of Inhibitors, Probes, and PROTAC Provides a Complete Toolbox to Study PARK7 in the Living Cell” (Journal of Medicinal Chemistry, 2024).
Like-named read-outs stand apart in the source and are kept apart here.

Tests used:
[1] = biological target: T1, PARK7 (Homo sapiens, UniProt Q99497); assay: High-throughput screen of the crude compound library, PARK7 fluorescence polarization (FP) assay with FP reagent JYQ-107; assay type: biochemical; details: 1.25 µM, crude compound library, read-out: HTS FP assay %Inhibition (1.25 µM)
T1 sequence (Q99497 1-189): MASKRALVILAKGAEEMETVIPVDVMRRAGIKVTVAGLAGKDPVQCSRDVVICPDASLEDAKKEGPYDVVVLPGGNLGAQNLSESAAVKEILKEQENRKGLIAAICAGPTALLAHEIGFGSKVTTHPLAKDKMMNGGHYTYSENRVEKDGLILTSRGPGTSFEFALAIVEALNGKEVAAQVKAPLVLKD

[2] = biological target: T1, PARK7; assay: Hit validation and pure-compound testing in the PARK7 FP assay with JYQ-107; assay type: biochemical; details: for inhibition at 0.25 µM: read-out: % Inhibition 0.25 µM; for inhibition at 0.5 µM: read-out: % Inhibition 0.5 µM

Compound	inhibition at 1.25 µM [1]	inhibition at 0.25 µM ([2]; crude compounds, 0.25 µM)	inhibition at 0.5 µM ([2]; crude compounds)	inhibition at 1 µM ([2]; crude compounds, 1 µM)	other results
Cc1nc(-c2cnn(C)c2)sc1C(=O)N1CCc2nc(NC(=O)[C@@H]3CCN(C#N)C3)sc2C1 [Compound 112]	91.1%	54.6%	78%	93.1%	–
N#CN1CC[C@@H](C(=O)Nc2nc3c(s2)CN(C(=O)c2cnn(-c4ccccc4)n2)CC3)C1 [Compound 295]	89.6%	38.6%	65.4%	88%	–
N#CN1CC[C@@H](C(=O)Nc2nc3c(s2)CN(C(=O)c2csc(C4CC4)n2)CC3)C1 [Compound 152]	92.4%	45.4%	67.6%	89.3%	–
N#CN1CC[C@@H](C(=O)Nc2nc3c(s2)CN(C(=O)c2cn(CCc4ccccc4)nn2)CC3)C1 [Compound 76]	91.3%	54.4%	78%	92.1%	–
N#CN1CC[C@@H](C(=O)Nc2nc3c(s2)CN(C(=O)C2CC(=O)N(C4CCCCCC4)C2)CC3)C1 (stereo partly drawn) [Compound 163]	89.6%	43.1%	70.9%	90.3%	–
COc1ccc(C(=O)N2CCc3nc(NC(=O)[C@@H]4CCN(C#N)C4)sc3C2)cc1S(=O)(=O)N1CCCCCC1 [Compound 133, (R)-N-(5-(3-(Azepan-1-ylsulfonyl)-4-methoxybenzoyl)-4,5,6,7-tetrahydrothiazolo[5,4-c]pyridin-2-yl)-1-cyanopyrrolidine-3-carboxamid]	90.8%	76.3%	89.1%	98.8%	inhibition at 0.25 µM ([2]; pure compounds, 0.25 µM): 77.9%; inhibition at 1 µM ([2]; pure compounds, 1 µM): 95.4%
N#CN1CC[C@@H](C(=O)Nc2nc3c(s2)CN(C(=O)c2ccc(Cn4cc(Br)cn4)o2)CC3)C1 [Compound 140]	90.7%	36.9%	62.1%	85.7%	–
N#CN1CC[C@@H](C(=O)Nc2nc3c(s2)CN(C(=O)C2CN(S(=O)(=O)C4CC4)C2)CC3)C1 [Compound 174]	91.8%	35%	63.1%	87.7%	–
N#CN1CC[C@@H](C(=O)Nc2nc3c(s2)CN(C(=O)c2cc(-n4ccnc4)ccn2)CC3)C1 [Compound 22]	90.7%	52.2%	81%	96%	–
N#CN1CC[C@@H](C(=O)Nc2nc3c(s2)CN(C(=O)c2cccnc2Oc2ccc(Cl)cc2Cl)CC3)C1 [Compound 345]	–	63.1%	85%	95%	inhibition at 1.25 µM ([1]; FP reagent JYQ-107): 92.1%
N#CN1CC[C@@H](C(=O)Nc2nc3c(s2)CN(C(=O)c2cc(-n4cccc4)ccn2)CC3)C1 [Compound 279]	94.2%	82.4%	96.1%	96.8%	–
N#CN1CC[C@@H](C(=O)Nc2nc3c(s2)CN(C(=O)c2cccnc2Oc2ccccc2Br)CC3)C1 [Compound 313]	94.5%	63%	81.5%	94.7%	–
N#CN1CC[C@@H](C(=O)Nc2nc3c(s2)CN(C(=O)c2ccc(=O)n(C4CC4)c2)CC3)C1 [Compound 369]	–	60.5%	81%	94.1%	inhibition at 1.25 µM ([1]; FP reagent JYQ-107): 89.2%
Cn1cc(-c2cc(C(=O)N3CCc4nc(NC(=O)[C@@H]5CCN(C#N)C5)sc4C3)n[nH]2)cn1 [Compound 337]	89.6%	51.5%	72.7%	92.5%	–
N#CN1CC[C@@H](C(=O)Nc2nc3c(s2)CN(C(=O)c2cccc(-c4ncn[nH]4)c2)CC3)C1 [Compound 131]	91%	66.1%	84.3%	96.9%	–
N#CN1CC[C@@H](C(=O)Nc2nc3c(s2)CN(C(=O)c2ccc(-c4ccccn4)s2)CC3)C1 [Compound 258]	89.2%	44.4%	72.9%	91%	–
N#CN1CC[C@@H](C(=O)Nc2nc3c(s2)CN(C(=O)c2cc(S(=O)(=O)NCCCN4CCCC4=O)ccc2Cl)CC3)C1 [Compound 146]	89.7%	45%	70.4%	90.7%	–
N#CN1CC[C@@H](C(=O)Nc2nc3c(s2)CN(C(=O)c2cnn(-c4cccc(Br)c4)c2)CC3)C1 [Compound 156]	92.6%	50.5%	79.8%	94.7%	–
CC(C)c1nc(Cn2cc(C(=O)N3CCc4nc(NC(=O)[C@@H]5CCN(C#N)C5)sc4C3)ccc2=O)cs1 [Compound 149]	93.2%	42.9%	69.6%	89.6%	–
N#CN1CC[C@@H](C(=O)Nc2nc3c(s2)CN(C(=O)c2coc(C#Cc4ccccc4)c2)CC3)C1 [Compound 311]	90.8%	18.8%	50.2%	83.4%	–
N#CN1CC[C@@H](C(=O)Nc2nc3c(s2)CN(C(=O)CCn2nc(C(F)(F)F)cc2C2CC2)CC3)C1 [Compound 333]	93.5%	57.5%	79.2%	94.5%	–
(R)-1-Cyano-N-(5-(4-hydroxybenzoyl)-4,5,6,7-tetrahydrothiazolo[5,4-c]pyridin-2-yl)pyrrolidine-3-carboxamide [Compound 3]	–	–	–	–	% Inhibition 0.25 µM ([2]; pure compounds, 0.25 µM): 58.4%; % Inhibition 1 µM ([2]; pure compounds, 1 µM): 90.1%; potency in FP assay compared to JYQ-88 ([2]; pure compounds, 0.25 and 1 μM): slight improvement in potency compared to JYQ-88
N#CN1CC[C@@H](C(=O)Nc2nc3c(s2)CN(C(=O)C2CCN(C(=O)N4CCOCC4)CC2)CC3)C1 [compound 362]	–	–	–	–	inhibition at 1.25 µM ([1]; FP reagent JYQ-107): 71.7%
N#CN1CC[C@@H](C(=O)Nc2nc3c(s2)CN(C(=O)C2CC(=O)N(OCc4ccccc4)C2)CC3)C1 (stereo partly drawn) [compound 370]	–	–	–	–	inhibition at 1.25 µM ([1]; FP reagent JYQ-107): 72.4%

Compound	inhibition at 1.25 µM [1]	inhibition at 0.25 µM ([2]; crude compounds, 0.25 µM)	inhibition at 0.5 µM ([2]; crude compounds)	inhibition at 1 µM ([2]; crude compounds, 1 µM)	other results
N#CN1CC[C@@H](C(=O)Nc2nc3c(s2)CN(C(=O)c2noc(-c4cccc(Cl)c4)n2)CC3)C1 [compound 85]	63%	–	–	–	–
CN1CCN(C(=O)C2CC=CCC2C(=O)N2CCc3nc(NC(=O)[C@@H]4CCN(C#N)C4)sc3C2)CC1 (stereo partly drawn) [compound 97]	72.8%	–	–	–	–
N#CN1CC[C@@H](C(=O)Nc2nc3c(s2)CN(C(=O)C2CCCN2C(=O)Cc2ccccc2)CC3)C1 (stereo partly drawn) [compound 144]	78.4%	–	–	–	–
CC(C)C(=O)N1CCc2nc(NC(=O)[C@@H]3CCN(C#N)C3)sc2C1 [compound 392]	–	–	–	–	inhibition at 1.25 µM ([1]; FP reagent JYQ-107): 63%
N#CN1CC[C@@H](C(=O)Nc2nc3c(s2)CN(C(=O)CC2CCN(c4ccc(C(F)(F)F)cn4)CC2)CC3)C1 [compound 291]	79.8%	–	–	–	–
N#CN1CC[C@@H](C(=O)Nc2nc3c(s2)CN(C(=O)C(Br)c2ccccc2)CC3)C1 (stereo partly drawn) [compound 411]	–	–	–	–	inhibition at 1.25 µM ([1]; FP reagent JYQ-107): 41.8%
N#CN1CC[C@@H](C(=O)Nc2nc3c(s2)CN(C(=O)C2CC(OCc4ccccc4)C2)CC3)C1 (stereo partly drawn) [compound 35]	78.9%	–	–	–	–
CC(C)(C)OC(=O)N1C[C@@H](O)C[C@@H]1C(=O)N1CCc2nc(NC(=O)[C@@H]3CCN(C#N)C3)sc2C1 [compound 450]	–	–	–	–	inhibition at 1.25 µM ([1]; FP reagent JYQ-107): 68.1%
N#CN1CC[C@@H](C(=O)Nc2nc3c(s2)CN(C(=O)c2ccnc(C4CC4)n2)CC3)C1 [compound 264]	67.7%	–	–	–	–
Cc1ccc(-n2c(C)ccc2C)c(C(=O)N2CCc3nc(NC(=O)[C@@H]4CCN(C#N)C4)sc3C2)c1 [compound 12]	66.6%	–	–	–	–
Cc1cccc(COc2cccc(C(=O)N3CCc4nc(NC(=O)[C@@H]5CCN(C#N)C5)sc4C3)c2)c1 [compound 383]	–	–	–	–	inhibition at 1.25 µM ([1]; FP reagent JYQ-107): 87.5%
N#CN1CC[C@@H](C(=O)Nc2nc3c(s2)CN(C(=O)c2ccc(Cn4ccnn4)o2)CC3)C1 [compound 280]	81.9%	–	–	–	–
Cc1nc(C(=O)N2CCc3nc(NC(=O)[C@@H]4CCN(C#N)C4)sc3C2)co1 [compound 126]	70.6%	–	–	–	–
Cc1cc(C)n(-c2ccc(Cl)c(C(=O)N3CCc4nc(NC(=O)[C@@H]5CCN(C#N)C5)sc4C3)n2)n1 [compound 338]	68.4%	–	–	–	–
Cc1nc(-c2cccnc2)sc1C(=O)N1CCc2nc(NC(=O)[C@@H]3CCN(C#N)C3)sc2C1 [compound 128]	76.5%	–	–	–	–
N#CN1CC[C@@H](C(=O)Nc2nc3c(s2)CN(C(=O)c2ncoc2C2CC2)CC3)C1 [compound 28]	85.7%	–	–	–	–
N#CN1CC[C@@H](C(=O)Nc2nc3c(s2)CN(C(=O)c2ccnc(N4CCOCC4)n2)CC3)C1 [compound 180]	87.3%	–	–	–	–
N#CN1CC[C@@H](C(=O)Nc2nc3c(s2)CN(C(=O)Cc2csc(-c4ccccc4)n2)CC3)C1 [compound 346]	–	–	–	–	inhibition at 1.25 µM ([1]; FP reagent JYQ-107): 61.9%
Cn1cc(NS(=O)(=O)c2ccsc2C(=O)N2CCc3nc(NC(=O)[C@@H]4CCN(C#N)C4)sc3C2)cn1 [compound 53]	64.9%	–	–	–	–
N#CN1CC[C@@H](C(=O)Nc2nc3c(s2)CN(C(=O)CC2CCN(c4ccc(Cl)nn4)CC2)CC3)C1 [compound 371]	–	–	–	–	inhibition at 1.25 µM ([1]; FP reagent JYQ-107): 74.8%
Cc1cc(C)cc(N(CCC(=O)N2CCc3nc(NC(=O)[C@@H]4CCN(C#N)C4)sc3C2)S(=O)(=O)c2ccc(Cl)cc2)c1 [compound 299]	87.8%	–	–	–	–
N#CN1CC[C@@H](C(=O)Nc2nc3c(s2)CN(C(=O)Cc2csc(-c4cccs4)n2)CC3)C1 [compound 105]	85.3%	–	–	–	–
Cc1cc(C(=O)N(C)c2ccccc2C(=O)N2CCc3nc(NC(=O)[C@@H]4CCN(C#N)C4)sc3C2)sc1C [compound 260]	61.7%	–	–	–	–
